In patent US10561656B2, “Organic compounds” (INTRA-CELLULAR THERAPIES, INC., priority 2011, dated 2020):

Tests used:
C57BL/6 mice = assay: Haloperidol-induced catalepsy model (bar grip test); type: in vivo; conditions: mouse, PO, haloperidol 3 mg/kg PO, step down latency
Source text: To evaluate the potential beneficial effects to motor defects present in schizophrenics treated with typical and atypical antipsychotic agents and in Parkinson's disease patients, the compounds of the invention may be tested in a reversal of catalepsy model in which motor freezing, or catalepsy, is induced by potent dopamine D2 receptor antagonists such as haloperidol or risperidone. The method uses the “bar grip test”, in which the front paws of the mouse are placed so as to grip a 3 mm-diameter, suspended wooden bar. A “step down latency” is measured by recording the time until the mouse removes its paws from the wooden bar to the floor surface. […]
A total of seventeen (17) eight week-old, male, C57BL/6 mice (Jackson Laboratories) are used in a typical experiment testing the effect of the compound of Example 1 or 2. […] A catalepsy score is recorded for each mouse at 2, 3, 4 and 6 hours after administration of drugs. […] The latency until the mouse steps both paws down from the bar to the floor surface (i.e., step down latency) is recorded up to 120 sec. […] If none of the 10 attempts are beyond 10 sec, the longest duration recorded is used as the catalepsy score. Otherwise, the initial cataleptic duration (>10 sec) is recorded during the 120 sec testing time. Mean step down latency is calculated for each treatment group. […]

[1] = target: recombinant full length human PDE1B (r-hPDE1B) (Homo sapiens (Human), UniProt Q01064); assay: IMAP phosphodiesterase assay, r-hPDE1B; type: biochemical; conditions: IMAP fluorescence polarization, FL-GMP substrate
Source text: (§1) Phosphodiesterase 1B (PDE1B) is a calcium/calmodulin dependent phosphodiesterase enzyme that converts cyclic guanosine monophosphate (cGMP) to 5′-guanosine monophosphate (5′-GMP). PDE1B can also convert a modified cGMP substrate, such as the fluorescent molecule cGMP-fluorescein, to the corresponding GMP-fluorescein. The generation of GMP-fluorescein from cGMP-fluorescein can be quantitated, using, for example, the IMAP (Molecular Devices, Sunnyvale, Calif.) immobilized-metal affinity particle reagent.
(§2) Briefly, the IMAP reagent binds with high affinity to the free 5′-phosphate that is found in GMP-fluorescein and not in cGMP-fluorescein. The resulting GMP-fluorescein—IMAP complex is large relative to cGMP-fluorescein. Small fluorophores that are bound up in a large, slowly tumbling, complex can be distinguished from unbound fluorophores, because the photons emitted as they fluoresce retain the same polarity as the photons used to excite the fluorescence.
(§3) In the phosphodiesterase assay, cGMP-fluorescein, which cannot be bound to IMAP, and therefore retains little fluorescence polarization, is converted to GMP-fluorescein, which, when bound to IMAP, yields a large increase in fluorescence polarization (Δmp) Inhibition of phosphodiesterase, therefore, is detected as a decrease in Δmp.
Materials: All chemicals are available from Sigma-Aldrich (St. Louis, Mo.) except for IMAP reagents (reaction buffer, binding buffer, FL-GMP and IMAP beads), which are available from Molecular Devices (Sunnyvale, Calif.). […]
(§4) The FL-GMP conversion reaction is initiated by combining 4 parts enzyme and inhibitor mix with 1 part substrate solution (0.225 μM) in a 384-well microtiter plate. […] The plate is incubated at room temperature for 1 hour to allow IMAP binding to proceed to completion, and then placed in an Envision multimode microplate reader (PerkinElmer, Shelton, Conn.) to measure the fluorescence polarization (Δmp).
(§5) A decrease in GMP concentration, measured as decreased Δmp, is indicative of inhibition of PDE activity.

[2] = target: recombinant full length human PDE1A (r-hPDE1A) (Homo sapiens (Human), UniProt P54750); assay: IMAP phosphodiesterase assay, r-hPDE1A; type: biochemical; conditions: IMAP fluorescence polarization, FL-GMP substrate
Source text: as §1, §2, §3
Materials: All chemicals are available from Sigma-Aldrich (St. Louis, Mo.) except for IMAP reagents (reaction buffer, binding buffer, FL-GMP and IMAP beads), which are available from Molecular Devices (Sunnyvale, Calif.).
Assay: The following phosphodiesterase enzymes may be used: 3′,5′-cyclic-nucleotide-specific bovine brain phosphodiesterase (Sigma, St. Louis, Mo.) (predominantly PDE1B) and recombinant full length human PDE1A and PDE1B (r-hPDE1A and r-hPDE1B respectively) which may be produced e.g., in HEK or SF9 cells by one skilled in the art. The PDE1 enzyme is reconstituted with 50% glycerol to 2.5 U/ml. One unit of enzyme will hydrolyze 1.0 μmole of 3′,5′-cAMP to 5′-AMP per min at pH 7.5 at 30° C. One part enzyme is added to 1999 parts reaction buffer (30 μM CaCl2, 10 U/ml of calmodulin (Sigma P2277), 10 mM Tris-HCl pH 7.2, 10 mM MgCl2, 0.1% BSA, 0.05% NaN3) to yield a final concentration of 1.25 mU/ml. […]
as §4, §5

rats = assay: Novel Object Recognition (NOR) assay; type: in vivo; conditions: rat, 0.3 mg/Kg PO, dosed 2 hours before T1, p<0.01
Source text: To measure the cognition-enhancing effects of the compounds of the invention, the candidate compounds may be evaluated in a Novel Object Recognition (NOR) assay. This assay protocol is described in detail in Ennaceur et al., Behav. Brain Res. (1988) 31:47-59 and Prickaerts et al., Eur. J. Pharmacol. (1997) 337:125-136, the contents of each of which are incorporated by reference in their entirety. In this protocol, the rats are introduced to a chamber at time T1 and allowed to interrogate two identical “familiar objects” for six minutes. Twenty four hours later, they are re-introduced to this chamber, where one of the familiar objects has been replaced with a novel object. The “discrimination index”, a measure of the time spent in close proximity to the novel over the familiar object, may then be measured. Since rodents will forget the original experience at T1 within 4 hours, this test with a 24 h interval is a measure of strong cognitive enhancement.
This assay protocol can be modified in order to evaluate different phases of memory. There are three general phases of memory, namely, acquisition, consolidation and retrieval. In this modified protocol, the rats may be dosed with the candidate compound two hours before T1 and tested 24 h later, without additional dosing. This is a test of the acquisition process. […]

IC50 [1] [nM] | IC50 [2] [nM] | SMILES | minimal dose active in catalepsy model (C57BL/6 mice) [mg/kg] | activity versus vehicle in Novel Object Recognition (rats)
11000 | 2.7 | CCSc1c2c(nn1Cc1ccc(-c3ccc(F)cn3)cc1)N1CC(C)(C)N=C1N(C)C2=O [Example 1, 3-(ethylthio)-2-(4-(5-fluoropyridin-2-yl)benzyl)-5,7,7-trimethyl-7,8-dihydro-2H-imidazo[1,2-a]pyrazolo[4,3-e]pyrimidin-4(5H)-one] | < 0.1 | active versus vehicle
4000 | 1 | CCSc1c2c(nn1Cc1ccc(-c3cccc(F)n3)cc1)N1CC(C)(C)N=C1N(C)C2=O [Example 2, 3-(ethylthio)-2-(4-(6-fluoropyridin-2-yl)benzyl)-5,7,7-trimethyl-7,8-dihydro-2H-imidazo[1,2-a]pyrazolo[4,3-e]pyrimidin-4(5H)-one] | < 0.1 | –
27000 | 1.5 | CCSc1c2c(nn1Cc1ccc(-c3cccc(F)n3)cc1)N1C(=N[C@@H]3CCC[C@@H]31)N(C)C2=O [Example 3-A, (6aR,9aS)-5,6a,7,8,9,9a-hexahydro-5-methyl-3-(ethylthio)-2-(4-(6-fluoropyridin-2-yl)benzyl)-cyclopent[4,5]imidazo[1,2-a]pyrazolo[4,3-e]pyrimidin-4(2H)-one] | – | –
– | 6 | CC(C)Sc1c2c(nn1Cc1ccc(-c3cccc(F)n3)cc1)N1C(=N[C@@H]3CCC[C@@H]31)N(C)C2=O [Example 3-B, (6aR,9aS)-5,6a,7,8,9,9a-hexahydro-5-methyl-3-(isopropylthio)-2-(4-(6-fluoropyridin-2-yl)benzyl)-cyclopent[4,5]imidazo[1,2-a]pyrazolo[4,3-e]pyrimidin-4(2H)-one] | – | –
